Paper PMC10720538, “Population pharmacokinetic modeling and target attainment analyses of rezafungin for the treatment of candidemia and invasive candidiasis” (Antimicrobial Agents and Chemotherapy, 2023)
*1 amine or outer side, *2 acyl side, *3 side chain or, on linkers, in order; H or OH if unused. Where a SMILES comes first, the peptide text is derived from it. Bridges are numbered along the chain shown (N, C = ends). [ ]: non-standard residue; d: D form. The star is where a group is joined. Orn(4R-OH,5R-OCH2CH2NMe3+) = C[N+](C)(C)CCO[C@@H](N[*:3])[C@H](O)C[C@H](N[*:1])C(=O)[*:2]; pTerphenylCO(4''-OnC5H11) = CCCCCOc1ccc(-c2ccc(-c3ccc(C(=O)*)cc3)cc2)cc1; hTyr(3S-OH,4S-OH) = N[C@H](C(=O)O)[C@H](O)[C@@H](O)c1ccc(O)cc1; Pro(3S-OH,4S-Me) = C[C@H]1CN[C@H](C(=O)O)[C@H]1O; Hyp = O=C(O)[C@@H]1C[C@@H](O)CN1

Columns and labels:
Candida tropicalis = conditions: CLSI MIC, neutropenic mouse, ref Lepak et al., 2019 (e01556-19), cited from earlier work
Description: (§1) TABLE 4 Nonclinical pharmacokinetic/pharmacodynamic targets, by species^a^,^b^,^c | column: Stasis / fAUC0–168h/MIC median; 1-Log drop / fAUC0–168h/MIC median || FIG 4 Probability of pharmacokinetic/pharmacodynamic target attainment for 400 mg rezafungin against Candida species using CLSI methodology. f, free. TEXT PRINTED IN THE PICTURE: no label printed: Candida albicans − fAUC/MIC Targets: CLSI Target: Stasis 20.5; Candida albicans − fAUC/MIC Targets: CLSI Target: 1-Log Drop in CFU 37.2; Candida glabrata − fAUC/MIC Targets: CLSI Target: Stasis 0.5; Candida glabrata − fAUC/MIC Targets: CLSI Target: 1-Log Drop in CFU 2.94; Candida parapsilosis − fAUC/MIC Targets: CLSI Target: Stasis 18.2; Candida auris − fAUC/MIC Targets: CLSI Target: Stasis 12.1; Can ...

Candida glabrata = conditions: CLSI MIC, neutropenic mouse, ref Lepak et al., 2018 (e02154-17), cited from earlier work
Description: as §1

Candida auris = conditions: CLSI MIC, neutropenic mouse, published fAUC0–24 h/MIC target multiplied by 7, ref Lepak et al., 2018 (e01572-18), cited from earlier work
Description: as §1

Candida dubliniensis = conditions: CLSI MIC, neutropenic mouse, ref Lepak et al., 2019 (e01556-19), cited from earlier work
Description: as §1

Candida albicans = conditions: CLSI MIC, neutropenic mouse, ref Lepak et al., 2018 (e02154-17), cited from earlier work
Description: as §1

[1] = Simulated exposure measures after a single 400 mg dose from individual Bayesian PK estimates, with forest plots of covariate effects; assay type: in vivo, human; conditions: for Half-life: from simulated concentrations during week 2 after the last dose; for Clearance: individual model-based estimates (CL); for AUC0–168h / Cmax / Cmin, 168h: single 400 mg IV dose, simulated; for Total volume of distribution at steady state: sum of individual model-based central and peripheral volumes
Description: To illustrate the relative differences in the impact of the covariates included in the final model on the exposure of rezafungin, forest plots were constructed using simulated exposure for the subjects in the analysis data set, following a single dose of 400 mg. […] Though statistically significant and included in the final model, the GMR rezafungin exposure and 90% CI of each covariate effect were not far outside of the default no effect bounds of 0.8 and 1.25.
Age was not determined to be a significant covariate of rezafungin exposure. Sixty-three patients were aged 65 years or older, with the oldest patient being […]. Thirty-eight patients were aged 65 to <75, and 25 patients were aged 75 to 89 years old. The GMR (90% CI) of AUC0–168h of these two age groups were 0.95 (0.85, 1.05) and 1.20 (1.06, 1.36), respectively, compared to patients 24 to <65 years old (n = 104). The change in exposure in patients 65 years or older is not deemed clinically meaningful.
The final PK model of rezafungin, the individual empirical Bayesian PK parameter estimates, and the individual dosing histories were used to simulate dense PK profiles for each subject using the R package mrgsolve ([33]).

[2] = healthy subjects, n = 94, geometric mean (geometric %CV)
[3] = healthy subjects, n = 94, mean (SD), SD
[4] = hepatic impairment, uninfected, n = 16, geometric mean (geometric %CV)
[5] = hepatic impairment, uninfected, n = 16, mean (SD), SD
[6] = patients, n = 167, geometric mean (geometric %CV)
[7] = patients, n = 167, mean (SD), SD

CCCCCOc1ccc(-c2ccc(-c3ccc(C(=O)N[C@H]4C[C@@H](O)[C@@H](OCC[N+](C)(C)C)NC(=O)[C@@H]5[C@@H](O)[C@@H](C)CN5C(=O)[C@H]([C@@H](C)O)NC(=O)[C@H]([C@H](O)[C@@H](O)c5ccc(O)cc5)NC(=O)[C@@H]5C[C@@H](O)CN5C(=O)[C@H]([C@@H](C)O)NC4=O)cc3)cc2)cc1 [rezafungin] ({pTerphenylCO(4''-OnC5H11)}-[Orn(4R-OH,5R-OCH2CH2NMe3+)]T[Hyp][hTyr(3S-OH,4S-OH)]T[Pro(3S-OH,4S-Me)]; lactam 1-C)
1-Log drop, fAUC0–168h/MIC median (Candida tropicalis; 1-log10 drop in CFU): 148.9
Stasis, fAUC0–168h/MIC median (Candida tropicalis; net fungal stasis): 86.5
1-Log drop, fAUC0–168h/MIC median (Candida glabrata; 1-log10 drop in CFU): 2.94
Stasis, fAUC0–168h/MIC median (Candida glabrata; net fungal stasis): 0.5
1-Log drop, fAUC0–168h/MIC median (Candida auris; 1-log10 drop in CFU): 38.4
Stasis, fAUC0–168h/MIC median (Candida auris; net fungal stasis): 12.1
1-Log drop, fAUC0–168h/MIC median (Candida dubliniensis; 1-log10 drop in CFU): 228.3
Stasis, fAUC0–168h/MIC median (Candida dubliniensis; net fungal stasis): 35.1
1-Log drop, fAUC0–168h/MIC median (Candida albicans; 1-log10 drop in CFU): 37.2
Stasis, fAUC0–168h/MIC median (Candida albicans; net fungal stasis): 20.5
Half-life [1, 2]: 143.368 (9.737) h
Half-life [1, 3]: 144.039 (14.027) h
Half-life [1, 4]: 132.827 (9.457) h
Half-life [1, 5]: 133.372 (12.249) h
Half-life [1, 6]: 149.458 (18.095) h
Half-life [1, 7]: 151.960 (29.086) h
Clearance [1, 2]: 0.229 (20.266) L/h
Clearance [1, 3]: 0.234 (0.048) L/h
Clearance [1, 4]: 0.336 (21.829) L/h
Clearance [1, 5]: 0.343 (0.077) L/h
Clearance [1, 6]: 0.328 (38.396) L/h
Clearance [1, 7]: 0.350 (0.130) L/h
AUC0–168h [1, 2]: 1,070.513 (20.149) μg × h/mL
Cmax [1, 2]: 21.725 (22.466) μg/mL
Cmin, 168h [1, 2]: 3.247 (22.858) μg/mL
AUC0–168h [1, 3]: 1,091.512 (215.164) μg × h/mL
Cmax [1, 3]: 22.244 (4.789) μg/mL
Cmin, 168h [1, 3]: 3.329 (0.741) μg/mL
AUC0–168h [1, 4]: 778.250 (19.012) μg × h/mL
Cmax [1, 4]: 17.061 (16.797) μg/mL
Cmin, 168h [1, 4]: 2.113 (25.916) μg/mL
AUC0–168h [1, 5]: 791.452 (152.248) μg × h/mL
Cmax [1, 5]: 17.291 (3.017) μg/mL
Cmin, 168h [1, 5]: 2.176 (0.533) μg/mL
AUC0–168h [1, 6]: 752.507 (35.100) μg × h/mL
Cmax [1, 6]: 17.715 (35.418) μg/mL
Cmin, 168h [1, 6]: 2.097 (43.351) μg/mL
AUC0–168h [1, 7]: 798.607 (295.120) μg × h/mL
Cmax [1, 7]: 18.761 (6.448) μg/mL
Cmin, 168h [1, 7]: 2.292 (1.072) μg/mL
Fold change in AUC0-168h relative to reference, GMR (90% CI) ([1]; single 400 mg dose, Phase 2/3 patients, BMI obese (≥30 kg/m^2), n = 36, vs optimum BMI): 0.77 (0.69, 0.86)
Fold change in AUC0-168h relative to reference, GMR (90% CI) ([1]; single 400 mg dose, Phase 2/3 patients, BMI overweight (25 to <30 kg/m^2), n = 40, vs optimum BMI): 0.84 (0.75, 0.94)
Fold change in AUC0-168h relative to reference, GMR (90% CI) ([1]; single 400 mg dose, Phase 2/3 patients, BMI underweight (<18.5 kg/m^2), n = 17, vs optimum BMI): 1.03 (0.88, 1.20)
Fold change in AUC0-168h relative to reference, GMR (90% CI) ([1]; single 400 mg dose, Phase 2/3 patients, age (y) [65,75), n = 38, vs 24 to <65 years): 0.95 (0.85, 1.05)
Fold change in AUC0-168h relative to reference, GMR (90% CI) ([1]; single 400 mg dose, Phase 2/3 patients, age (y) [75,89], n = 25, vs 24 to <65 years): 1.20 (1.06, 1.36)
higher AUC0–168h in female subjects ([1]; single 400 mg dose, Phase 2/3 patients, female vs male): 21%
Fold change in AUC0-168h relative to reference, GMR (90% CI) ([1]; single 400 mg dose, Phase 2/3 patients, kidney failure (CrCL <15 mL/min) vs normal renal function): 1.16 (0.96, 1.39)
Fold change in AUC0-168h relative to reference, GMR (90% CI) ([1]; single 400 mg dose, Phase 2/3 patients, mild renal impairment (CrCL 60 to 89 mL/min) vs normal renal function): 0.95 (0.85, 1.06)
Fold change in AUC0-168h relative to reference, GMR (90% CI) ([1]; single 400 mg dose, Phase 2/3 patients, moderate renal impairment (CrCL 30 to 59 mL/min) vs normal renal function): 1.23 (1.11, 1.36)
Fold change in AUC0-168h relative to reference, GMR (90% CI) ([1]; single 400 mg dose, Phase 2/3 patients, severe renal impairment (CrCL 15 to 29 mL/min) vs normal renal function): 1.01 (0.88, 1.16)
Total volume of distribution at steady state [1, 2]: 42.312 (22.744) L
Total volume of distribution at steady state [1, 3]: 43.410 (10.265) L
Total volume of distribution at steady state [1, 4]: 56.279 (19.744) L
Total volume of distribution at steady state [1, 5]: 57.264 (10.702) L
Total volume of distribution at steady state [1, 6]: 62.434 (40.964) L
Total volume of distribution at steady state [1, 7]: 67.451 (27.744) L
